A short description of data set [1]: 1-Octanol/phosphate buffer partition coefficient, logP of the compound at pH 7.40. The data set is classed as physicochemical. The note with it: pH 7.4.
Data set [2] in a line: Permeability coefficient of the compound in human Caco-2 cells. The data set is classed as ADME, cell-based. The settings on record: read-out: Kp. A general note: Caco-2 monolayers are a common model of the intestinal barrier.
The nature of data set [3]: Oral bioavailability in rat. The data set is classed as ADME, organism-based. The note with it: in vivo.
Data set [4] is described as follows: Dissociation constant, pKa of compound. The data set is classed as physicochemical.
Data set [5] can be described thus: Induction of anion transport in NaCl loaded POPC liposomes assessed transmembrane permeability by measuring chloride efflux by ion selective electrode.

Each structure is given as a SMILES string.

In data set [1], `Cc1cccc(Nc2ccncc2S(=O)(=O)N/C(=C/[N+](=O)[O-])NC(C)C)c1` returned a log distribution coefficient (logD) of 1.12.

On to `COC(=O)C1=C(C)NC(C)=C(C(=O)OC)C1c1cccc(N/C(=N/C#N)NCCCN2CCC(c3cccc(OC)c3)CC2)c1`, for which the Papp in data set [2] came out at 4.3 ×10⁻⁶ cm/s.

Consider `COC(=O)C1=C(C)NC(C)=C(C(=O)OC)C1c1cccc(NC(=O)NCCCN2CCC(c3cccc(OC)c3)CC2)c1`, for which the Papp in data set [2] was 1.9 ×10⁻⁶ cm/s. Also, the bioavailability in data set [3] amounted to 0.1%.

Compound `Cc1cccc(Nc2ccncc2S(=O)(=O)NC(=NC#N)NC(C)C)c1` gave a logD in data set [1] of 0.86. Besides, in data set [4], the pKa was found to be 6.

`FC(F)(F)c1cc(NC(=S)Nc2cc(C(F)(F)F)cc(C(F)(F)F)c2)cc(C(F)(F)F)c1` registered an EC50 in data set [5] of 0.16 mol%.

Compound `O=c1c(Nc2cc(C(F)(F)F)cc(C(F)(F)F)c2)c(Nc2cc(C(F)(F)F)cc(C(F)(F)F)c2)c1=O` gave an EC50 in data set [5] of 0.01 mol%.

`O=C(Nc1cc(C(F)(F)F)cc(C(F)(F)F)c1)Nc1cc(C(F)(F)F)cc(C(F)(F)F)c1` registered an EC50 in data set [5] of 0.3 mol%.

`Cc1cccc(Nc2ccncc2S(=O)(=O)NC(=O)NC(C)C)c1` [TORSEMIDE] registered a logD in data set [1] of 0.45. For the same compound, in data set [4], the pKa was 6.68.

Consider `Cc1cccc(Nc2ccncc2S(=O)(=O)NC(=S)NC(C)C)c1`, for which the log distribution coefficient (logD) in data set [1] is 0.61.

As a reminder, the logD is the decadic logarithm of the distribution of all forms, ionised or not, between an organic phase and buffer at a given pH. Broadly, the bioavailability is the share of a dose that reaches the circulation, judged against a reference dose that is usually intravenous. Usually pKa stands for the negative logarithm of the acid dissociation constant. A higher pKa goes with a group that holds its proton tightly.

Values taken from ChEMBL document CHEMBL5223063, “Recent advances in urea- and thiourea-containing compounds: focus on innovative approaches in medicinal chemistry and organic synthesis” (RSC Med Chem, 2021).
